Data published in PMC11352409, “Subtype-Specific Ligand Binding and Activation Gating in Homomeric and Heteromeric P2X Receptors” (Biomolecules, 2024).
Values joined by “and” are separate entries in the source; they are usually repeats but may differ in a detail not shown here. Equal entries are not always repeated.

Key:
Format in all cases: cell-based
human P2X3 receptors = target: T1, human P2X3 receptors (Homo sapiens, UniProt P56373); test: Whole-cell patch-clamp concentration-activation, HEK293 cells stably expressing hP2X3; settings: for Hill: hP2X3, Hill coefficient of concentration-activation fit; for Effect (Fold in ATP Potency): hP2X3, relative to ATP; for Effect (Fold in ATP Efficacy): hP2X3, relative to current at 100 µM ATP; for EC50: hP2X3, whole-cell, -50 mV, divalent-cation-free bath with 10 mM EGTA, normalised to 100 µM ATP
T1 construct: expressed in transfected cells
T1 sequence (P56373 1-397): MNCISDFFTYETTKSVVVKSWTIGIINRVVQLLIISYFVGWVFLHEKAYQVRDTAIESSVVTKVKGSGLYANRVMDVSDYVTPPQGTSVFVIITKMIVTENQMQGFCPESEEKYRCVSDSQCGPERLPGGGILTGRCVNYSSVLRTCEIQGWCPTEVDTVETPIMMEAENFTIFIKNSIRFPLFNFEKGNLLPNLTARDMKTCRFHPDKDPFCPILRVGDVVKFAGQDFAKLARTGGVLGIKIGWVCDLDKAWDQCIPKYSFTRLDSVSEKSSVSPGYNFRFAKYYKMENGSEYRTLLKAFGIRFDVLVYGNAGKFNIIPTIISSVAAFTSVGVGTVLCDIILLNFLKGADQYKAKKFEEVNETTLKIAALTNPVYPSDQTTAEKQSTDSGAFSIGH
Procedure: (§1) Human P2X receptors were expressed from HEK293 cell lines containing an inducible promoter system (Flp-In-T-REx 293, Invitrogen, Waltham, MA, USA). The used cell lines were: hP2X2 B (RRID: AC line CVCL_D6U1), hP2X3 (RRID: AC line CVCL_D6U3), and hP2X2/3 (RRID: AC line CVCL_D6U2). The cells were cultured in MEM supplemented with non-essential amino acids (Gibco, Waltham, MA, USA), 10% FCS, and antibiotics, according to the manufacturer’s instructions. For stable cell lines, Flp-In-T-REx 293 cells were transfected using the calcium phosphate method with a mixture of plasmids (0.3 µg pcDNA5/FRT/TO P2X gene and 1.5 µg pOG44) and selected for hygromycin resistance. The cells were seeded on glass coverslips for electrophysiological measurements and used 24–48 h after tetracycline induction ([…]).
(§2) Membrane currents were recorded with a standard patch-clamp technique in the whole-cell configuration. The patch pipettes were pulled from borosilicate glass (ID 1.0 mm, OD 2.0 mm; VITROCOM, Mountain Lakes, NJ, USA) using a micropipette puller (P-97, Sutter Instrument, Novato, CA, USA). The pipettes were filled with intracellular solution containing (mM) 142 NaCl, 5 BAPTA, 5 EGTA, and 10 HEPES at pH 7.4. The pipette resistance was from 2.0 to 6.0 MΩ. The bath solution contained (mM) 142 NaCl, 10 EGTA, 10 HEPES, and 10 glucose at pH 7.4. To increase the speed of recovery from the hP2X3 receptors, we additionally used a bath solution containing (mM) 142 NaCl, 10 HEPES, 10 glucose, 2 CaCl2, and 1 MgCl2. The cells were lifted for recording from the chamber bottom by the patch pipette and positioned in front of the outlet of the application pipette.
(§3) Solutions switches were carried out with the application pipette that had three barrels (inner diameter ~600 µm, Warner Instruments) controlled by a step motor (SF-77B, Warner Instruments). The speed of the laminar solution flow out of the barrels was estimated to be 2–5 cm/s. One barrel contained a control solution and another was connected to a solution selector (Vici Valco Instruments), which allowed us to apply different test solutions by exchanging the solution during the interval (60 sec for P2X2 and P2X2/3 receptors, 180 s for P2X3 receptors) of applying the control solution. Cells expressing hP2X3 were washed with 3 Units/mL apyrase for 30 min to remove ATP. To ensure the comparability of the data points between each application, we rinsed hP2X3 with the following solution for 3 min after each ATP application (mM): 142 NaCl, 10 HEPES, 10 glucose, 2 CaCl2, and 1 MgCl2 at pH 7.4. After sufficient recovery, we switched to the bath solution for 10 s and then to the solution of interest. The speed of the switch around a whole cell was estimated to be below 10 ms by switching between different salt solutions.
(§4) The saturation of activation was determined with ATP at 100 µM. The currents were recorded with a HEKA EPC 10 amplifier in combination with the patchmaster software. The sampling rate was 10 kHz and the recordings were on-line filtered at 2.9 kHz using a four-pole Bessel filter. The currents were recorded at a constant holding potential of −50 mV and the series resistance was compensated with the patchmaster software up to 80%.
(§5) The concentration–activation relationships from whole-cell measurements in the HEK293 cells were obtained from the maximum currents during ATP application. These current amplitudes were normalised with respect to the current at saturating ATP (100 µM) and the resulting data points were fitted I/ImaxATP = Amp/(1 + (EC50/[X])^h) (1) with the Origin 2019® software using a non-linear curve fitting routine. I is the actual current amplitude and ImaxATP is the maximum current amplitude at saturating ATP. The amplitude Amp is the efficacy of the respective ligands. EC50 is the ligand concentration generating the half-maximum current and h is the respective Hill coefficient. [X] is the actual concentration of ATP to be tested. […]

human P2X2 receptors = target: T2, human P2X2 receptors (Homo sapiens, UniProt Q9UBL9); test: Whole-cell patch-clamp concentration-activation, HEK293 cells stably expressing hP2X2; settings: for Hill: hP2X2, Hill coefficient of concentration-activation fit; for Effect (Fold in ATP Potency): hP2X2, relative to ATP; for Effect (Fold in ATP Efficacy): hP2X2, relative to current at 100 µM ATP; for EC50: hP2X2, whole-cell, -50 mV, divalent-cation-free bath with 10 mM EGTA, normalised to 100 µM ATP
T2 construct: expressed in transfected cells
T2 sequence (Q9UBL9 1-404 isoform Q9UBL9-2): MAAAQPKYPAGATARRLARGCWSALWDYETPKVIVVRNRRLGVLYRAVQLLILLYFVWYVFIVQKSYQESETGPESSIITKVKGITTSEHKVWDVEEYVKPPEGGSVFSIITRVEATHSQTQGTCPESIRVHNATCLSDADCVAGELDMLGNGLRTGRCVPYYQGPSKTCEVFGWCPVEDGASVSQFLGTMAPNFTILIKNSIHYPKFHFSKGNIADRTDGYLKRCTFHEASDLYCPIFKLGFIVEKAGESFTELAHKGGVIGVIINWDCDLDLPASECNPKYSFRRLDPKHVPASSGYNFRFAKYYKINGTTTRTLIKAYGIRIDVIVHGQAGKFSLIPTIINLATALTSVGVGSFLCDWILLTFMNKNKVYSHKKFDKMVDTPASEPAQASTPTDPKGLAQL
Procedure: as §1, §2, §3, §4, §5

human P2X2/3 receptors = target: T3, human P2X2/3 receptors (Homo sapiens, UniProt P56373+Q9UBL9); test: Whole-cell patch-clamp concentration-activation, HEK293 cells stably expressing hP2X2/3
T3 construct: expressed in transfected cells
T3 sequence (Q9UBL9 1-404 isoform Q9UBL9-2): T2 sequence (Q9UBL9 1-404 isoform Q9UBL9-2)
T3 sequence (P56373 1-397): T1 sequence (P56373 1-397)
Procedure: as §1, §2, §3, §4, §5

| Compound | Hill (human P2X3 receptors) | Effect (Fold in ATP Potency) (human P2X3 receptors) [fold] | Effect (Fold in ATP Efficacy) (human P2X3 receptors) [fold] | EC50 (human P2X3 receptors) [µM] | Hill (human P2X2 receptors) | Effect (Fold in ATP Potency) (human P2X2 receptors) [fold] | Effect (Fold in ATP Efficacy) (human P2X2 receptors) [fold] | Agonist behaviour (current response) (human P2X2 receptors; hP2X2, result in words) | EC50 (human P2X2 receptors) | Hill (human P2X2/3 receptors; hP2X2/3, Hill coefficient of concentration-activation fit) | Effect (Fold in ATP Potency) (human P2X2/3 receptors; hP2X2/3, relative to ATP) [fold] | Effect (Fold in ATP Efficacy) (human P2X2/3 receptors; hP2X2/3, relative to current at 100 µM ATP) [fold] | EC50 (human P2X2/3 receptors; hP2X2/3, whole-cell, -50 mV, divalent-cation-free bath with 10 mM EGTA, normalised to 100 µM ATP) [µM] | Current response in presence of Mg2+ (human P2X2 receptors; hP2X2, 0.3 µM ATP with 1 mM MgCl2 (27.5 nM ATP4- + 272.5 nM Mg2+ATP)) |
| --- | --- | --- | --- | --- | --- | --- | --- | --- | --- | --- | --- | --- | --- | --- |
| Nc1ncnc2c1ncn2[C@@H]1O[C@H](COP(=O)(O)CP(=O)(O)OP(=O)(O)O)[C@@H](O)[C@H]1O [α,βMe-ATP, αβmethylene-ATP] | 1.6 ± 0.7 | 0.1 | 1.9 | 9.6 ± 3.3 | 1.7 ± 1.5 | 0.1 | 0.1 | only partially | ~6.8 µM and 6.8 µM | – | – | – | – | – |
| Nc1ncnc2c1ncn2[C@@H]1O[C@H](COP(=O)(O)OP(=O)(O)OP(=O)(O)O)[C@@H](O)[C@H]1O [ATP] | 1.3 ± 0.2 | 1 | 1 | 1.1 ± 0.1 | 1.1 ± 0.1 | 1 | 1 | – | 0.7 ± 0.1 µM | 0.9 ± 0.1 | 1 | 1 | 2.7 ± 0.4 | completely abolished |
